Measurements as given in patent US8669072B2, “Oxadiazoline ligands for modulating the expression of exogenous genes via an ecdysone receptor complex” (Intrexon Corporation, priority 2003, dated 2014).

Assays:
[1] = molecular target: CfEcR (CDEF)/CfUSP, GST fusion protein (Choristoneura fumiferana, UniProt O77240); assay: CfEcR (CDEF)/CfUSP GST fusion protein assay; type: binding; conditions: for EC50: GST fusion protein, read-out: CfEcR EC50
[2] = molecular target: T1, Bombyx mori EcR (VBE) (Bombyx mori, UniProt P49881); assay: Z3 assay: β-galactosidase reporter gene induction in HEK-293 clone Z3 (CVBE / 6XEcRE LacZ); type: cell-based; conditions: for Fold Induction Average, Z3 assay: 33 μM ligand, 48 h, RLU relative to DMSO; for fold induction at 33 µM: HEK293, 48 h, read-out: Fold Induction Average, Z3 assay
T1 construct: expressed in transfected cells; host or cells: Human HEK-293 cells, retrovirally infected, clone Z3
T1 sequence (P49881 86-606 limits assumed): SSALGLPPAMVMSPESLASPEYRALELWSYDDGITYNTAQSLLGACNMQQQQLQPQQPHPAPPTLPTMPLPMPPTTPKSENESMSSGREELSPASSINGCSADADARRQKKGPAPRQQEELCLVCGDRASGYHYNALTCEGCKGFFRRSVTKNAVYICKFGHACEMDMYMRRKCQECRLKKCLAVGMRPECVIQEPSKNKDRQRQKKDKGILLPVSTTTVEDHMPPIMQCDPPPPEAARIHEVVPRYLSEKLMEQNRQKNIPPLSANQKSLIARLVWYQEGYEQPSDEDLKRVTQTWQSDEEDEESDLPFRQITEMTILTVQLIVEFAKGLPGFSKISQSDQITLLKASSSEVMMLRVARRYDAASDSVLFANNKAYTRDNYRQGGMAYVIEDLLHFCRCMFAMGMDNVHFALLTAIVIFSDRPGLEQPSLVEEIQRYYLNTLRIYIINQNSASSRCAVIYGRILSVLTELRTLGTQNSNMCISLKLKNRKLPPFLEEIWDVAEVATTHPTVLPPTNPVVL
T1 sequence (P19793 1-462 partner): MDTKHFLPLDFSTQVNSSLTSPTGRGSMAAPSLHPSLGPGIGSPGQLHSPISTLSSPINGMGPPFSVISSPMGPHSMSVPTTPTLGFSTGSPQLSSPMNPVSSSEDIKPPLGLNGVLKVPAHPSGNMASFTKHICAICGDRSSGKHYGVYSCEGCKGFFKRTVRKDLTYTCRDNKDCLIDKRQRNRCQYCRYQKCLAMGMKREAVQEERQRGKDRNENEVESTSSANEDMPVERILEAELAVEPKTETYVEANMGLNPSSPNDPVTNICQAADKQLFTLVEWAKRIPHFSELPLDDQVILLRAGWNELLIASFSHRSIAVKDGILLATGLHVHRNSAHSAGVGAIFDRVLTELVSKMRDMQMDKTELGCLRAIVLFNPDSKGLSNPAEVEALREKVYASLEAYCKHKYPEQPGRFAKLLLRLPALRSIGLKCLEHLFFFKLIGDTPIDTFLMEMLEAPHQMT

[3] = molecular target: T2, GAL4 DBD-CfEcR(DEF)/VP16AD-MmRXRE (Choristoneura fumiferana, UniProt O77240); assay: 13B3 assay: luciferase reporter gene induction in stable CHO clone 13B3; type: cell-based; conditions: for Fold Induction Average, 13B3 assay: 33/33.3 μM ligand, RLU relative to DMSO; for Fold Induction Average, 13B3 assay / fold induction at 33.3 µM: 48 h; for fold induction at 33.3 µM: read-out: Fold Induction Average, 13B3 assay
T2 construct: The wild-type D, E, and F domains from spruce budworm Choristoneura fumiferana EcR (“CfEcR-DEF”)
Method in brief: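 Stable CHO clone 13B3 co-expressing GAL4 DBD-CfEcR(DEF) and VP16AD-MmRXRE with a GAL4 RE-luciferase reporter; ligands from DMSO stocks diluted 300-fold. Luciferase read by luminescence 48 h after treatment, duplicate wells averaged. Fold induction = RLU treated/RLU DMSO; EC50 from three-parameter logistic fit.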

[4] = system: Tobacco Budworm; assay: Insect toxicity bioassay, TBW; type: in vivo
Protocol: (§1) The compound to be evaluated was dissolved in an appropriate solvent, usually a mix of acetone, methanol, and water. Test solutions were made by serial dilution of a stock test solution with acetone, methanol, and water. Initial evaluations were made at one or more concentrations on one or more of the following insects:
(§2) Feeding bioassays were conducted in bioassay trays containing insect diet. Treatments were made by applying 50 μL of test solution to the surface of the diet in each of 5 wells. After the test solution dried, each well was infested with a single neonate larva. The trays were held for six days and then the mortality rating was determined for each treatment.
Some of the tobacco budworm tests were conducted as follows. A test solution containing 600 ppm was made by dissolving a compound of the invention in a 1:1 acetone:methanol solution, then adding water to give a 5:5:90 acetone:methanol:water solution, and finally a surfactant was added at an equivalent of 7.37 g of surfactant per 100 L of test solution (1 ounce of surfactant per 100 gallons of test solution). Appropriate dilutions were prepared in water from the 600 ppm solution. A detached cotton leaf, Gossypium hirsutum was placed on moistened filter paper in a Petri dish (100×20 mms). The leaf was sprayed with the test solution using a rotating turntable sprayer and allowed to dry. The dish was infested with 10 first instar larvae of the tobacco budworm and covered with the lid. If the larvae were alive two days after treatment, fresh untreated cotton leaves were added. All treatments were maintained at 23.9-26.7° C. (75-80° F.) under fluorescent light in a well-ventilated room. Percent mortality was determined at four days after treatment.

[5] = system: MTA (two-spotted spider mite); assay: Insect toxicity contact bioassay, MTA; type: in vivo
Protocol: as §1
(§3) Contact bioassays (green peach aphid, two-spotted spider mite, white fly) were conducted by applying a solution of the test compound to the inside surface of a Petri dish. The solution was allowed to air-dry, then each dish was infested and the larvae from each treatment were transferred to a bioassay tray. The trays were held for one to seven days, and the mortality rating was determined for each treatment.

[6] = system: Cabbage Looper; assay: Insect toxicity feeding bioassay, CL; type: in vivo
Protocol: as §1, §2

[7] = system: Beet Armyworm; assay: Insect toxicity feeding bioassay, BAW; type: in vivo
Protocol: as §1, §2

[8] = system: WFN (white fly); assay: Insect toxicity contact bioassay, WFN; type: in vivo
Protocol: as §1, §3

[9] = molecular target: T3, GAL4 DBD (1-147)-CfEcR(DEF)/VP16AD-βRXREF-LmUSPEF (Choristoneura fumiferana, UniProt O77240); assay: cell-based; conditions: for fold induction at 33.3 µM: 48 h, read-out: Fold Induction Average, 27-63 assay; for Rel Max FI, 27-63 assay: maximum fold induction relative to that of GS-E ligand
T3 construct: The wild-type D, E, and F domains from spruce budworm Choristoneura fumiferana EcR (“CfEcR-DEF”)
Protocol: Stably transfected cells were selected by Zeocin resistance. Individually isolated CHO cell clones were transiently transfected with a GAL4 RE-luciferase reporter (pFR Luc). 27-63 clone was selected using Hygromycin.
Cells were trypsinized and diluted to a concentration of 2.5×10^4 cells mL. 100 μL of cell suspension was placed in each well of a 96 well plate and incubated at 37° C. under 5% CO2 for 24 h. Ligand stock solutions were prepared in DMSO and diluted 300 fold for all treatments.
Luciferase reporter gene expression was measured 48 h after cell treatment using Bright-Glo™ Luciferase Assay System from Promega (E2650). Luminescence was detected at room temperature using a Dynex MLX microtiter plate luminometer.
Each assay was conducted in two separate wells, and the two values were averaged. Fold inductions were calculated by dividing relative light units (“RLU”) in ligand treated cells with RLU in DMSO treated cells. EC50s were calculated from dose response data using a three-parameter logistic model.

[10] = maximum fold induction relative to that of GS-E ligand

Chain of CfEcR (CDEF)/CfUSP, GST fusion protein (O77240 entry or part of it): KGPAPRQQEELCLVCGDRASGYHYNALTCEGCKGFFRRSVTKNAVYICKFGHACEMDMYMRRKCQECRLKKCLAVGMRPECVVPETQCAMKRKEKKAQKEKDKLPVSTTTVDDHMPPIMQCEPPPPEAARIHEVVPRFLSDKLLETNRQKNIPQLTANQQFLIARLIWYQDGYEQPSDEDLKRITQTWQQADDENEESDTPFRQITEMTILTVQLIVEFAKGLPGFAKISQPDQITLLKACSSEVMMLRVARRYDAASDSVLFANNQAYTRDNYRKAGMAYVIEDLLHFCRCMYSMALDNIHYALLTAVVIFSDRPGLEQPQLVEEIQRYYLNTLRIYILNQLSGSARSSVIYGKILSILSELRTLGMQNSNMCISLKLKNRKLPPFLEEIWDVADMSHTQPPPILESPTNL
Chain of CfEcR (CDEF)/CfUSP, GST fusion protein (O76202 whole entry, further chain, the tested form may be a part): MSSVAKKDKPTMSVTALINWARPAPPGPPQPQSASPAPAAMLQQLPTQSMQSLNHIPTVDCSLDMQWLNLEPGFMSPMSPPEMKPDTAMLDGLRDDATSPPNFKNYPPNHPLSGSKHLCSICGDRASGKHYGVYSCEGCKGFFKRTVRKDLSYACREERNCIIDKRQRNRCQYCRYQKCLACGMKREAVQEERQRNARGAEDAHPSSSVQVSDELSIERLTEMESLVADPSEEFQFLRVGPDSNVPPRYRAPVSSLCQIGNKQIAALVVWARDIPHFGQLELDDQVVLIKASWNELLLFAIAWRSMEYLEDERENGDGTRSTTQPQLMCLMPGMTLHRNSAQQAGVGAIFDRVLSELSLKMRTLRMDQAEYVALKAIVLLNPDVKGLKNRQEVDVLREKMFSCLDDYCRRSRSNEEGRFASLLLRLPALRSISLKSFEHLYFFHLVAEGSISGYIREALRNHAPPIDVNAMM

SMILES	Fold Induction Average, Z3 assay [2]	fold induction at 33 µM [2]	Insect Toxicity % control @ 150 ppm, TBW [4]	Insect Toxicity % control @ 150 ppm, MTA [5]	Insect Toxicity % control @ 150 ppm, CL [6]	Insect Toxicity % control @ 150 ppm, BAW [7]	Insect Toxicity % control @ 150 ppm, WFN [8]	further results
CCC1(C)ON=C(c2cc(C)cc(C)c2)N1NC(=O)c1ccccc1 (stereo not drawn) [RG-120039]								EC50 [1]: 0.203 µM
CCc1c(OC)cccc1C(=O)NN1C(c2cc(C)cc(C)c2)=NOC12CCOCC2 [RG-120008]	567.3							CfEcR % @ 1 uM [1]: 81% @ 1 uM
CCC1(C)ON=C(c2cc(C)cc(C)c2)N1NC(=O)Nc1ccccc1 (stereo not drawn) [RG-120051]								EC50 [1]: 0.147 µM
Cc1cc(C)cc(C2=NOC3(CCCC3)N2NC(=O)c2cc3ccccc3s2)c1 [RG-120152]	59.9							Fold Induction Average, 13B3 assay [3]: 264.3; CfEcR % @ 1 uM [1]: 92% @ 1 uM
CCc1ccc(C(=O)NN2C(c3ccccc3OC)=NOC2(C)C)cc1 [RG-120026]		41.1	0% @ 150	40% @ 150	0% @ 150	100% @ 150	0% @ 150	fold induction at 33.3 µM [3]: 0.9; EC50 [9]: > 33 µM; fold induction at 33.3 µM [9]: 8.5; Rel Max FI, 27-63 assay [9]: 0
CC1(C)ON=C(c2cccc(C(F)(F)F)c2)N1NC(=O)Nc1ccccc1 [RG-120001]	0.3		0% @ 150	0% @ 150	20% @ 150	80% @ 150	0% @ 150	Fold Induction Average, 13B3 assay [3]: 3.3
COc1ccc(C2=NOC(C)(C)N2NC(=O)c2ccccc2)c(OC)c1 [RG-120096]		0.7	0% @ 150	74 @ 150%	60% @ 150	0% @ 150	55% @ 150	EC50 [2]: > 50 µM; Rel Max FI, Z3 assay [2, 10]: 0; EC50 [3]: > 33.3 µM; fold induction at 33.3 µM [3]: 0.2; Rel Max FI, 13B3 assay [3, 10]: 0
CCc1c(OC)cccc1C(=O)NN1C(c2ccc(Cl)cc2)=NOC1(C)C [RG-120099]		0.2	0% @ 150	0% @ 150	40% @ 150	100% @ 150	0% @ 150	EC50 [9]: ~20 µM; fold induction at 33.3 µM [9]: 1330; Rel Max FI, 27-63 assay [9]: 0.64
CCc1ccc(C(=O)NN2C(c3ccc(Cl)cc3)=NOC2(C)C)cc1 [RG-120035]		9.1	0% @ 150	0% @ 150	100% @ 150	40% @ 150	0% @ 150	fold induction at 33.3 µM [3]: 1.2
CCc1c(OC)cccc1C(=O)NN1C(c2ccccc2)=NOC12CCCC2 [RG-120092]								Insect Toxicity LC50, TBW ([4]; in vivo): 98 ppm; Insect Toxicity LC50, MTA ([5]; in vivo): >150 ppm; Insect Toxicity LC50, CL ([6]; in vivo): 13 ppm; Insect Toxicity LC50, BAW ([7]; in vivo): 47 ppm; Insect Toxicity LC50, WFN ([8]; in vivo): >150 ppm; EC50 [9]: 7.16 µM; fold induction at 33.3 µM [9]: 2190; Rel Max FI, 27-63 assay [9]: 1.15
CC1(C)ON=C(c2cccc(C(F)(F)F)c2)N1NC(=O)Cc1ccccc1 [RG-120021]	0.7		0% @ 150	51% @ 150	0% @ 150	100% @ 150	0% @ 150	
Cc1cccc(C(=O)NN2C(c3cc(C)cc(C)c3)=NOC2(C)C)c1 [RG-120077]	14.6		0% @ 150	0% @ 150	100% @ 150	50% @ 150	0% @ 150	Fold Induction Average, 13B3 assay [3]: 0.4
